Measured values: PubChem BioAssay AID330 (DTP/NCI, 2004)
Where “and” joins values, the source holds several entries; their conditions need not be identical. Identical values can stand only once. Toxic doses and inconclusive results are not listed. Rule for the calls: active = survival T/C of 150% or more; inactive = T/C below 125% in these data.

System: P388 leukemia ip, CD2F1 mice, survival T/C
Assay: NCI In Vivo Anticancer Drug Screen. Data for tumor model P388 Leukemia (intraperitoneal) in CD2F1 (CDF1) mice
Conditions: endpoint: median survival time, higher = longer survival
How it was run: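 Mice carrying the transplanted tumor received test compound or vehicle. Survival was recorded in each group, and the value is the treated-group measurement divided by that of the vehicle-treated control group.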

[1] = dose: 12.5 mg/kg/injection, schedule: Q01DX005 (ip), vehicle: Klucel (hydroxypropylcellulose) (HPC)
[2] = dose: 25.0 mg/kg/injection, schedule: Q01DX005 (ip), vehicle: Klucel (hydroxypropylcellulose) (HPC)
[3] = dose: 50.0 mg/kg/injection, schedule: Q01DX005 (ip), vehicle: Klucel (hydroxypropylcellulose) (HPC)
[4] = dose: 100.0 mg/kg/injection, schedule: Q01DX005 (ip), vehicle: Klucel (hydroxypropylcellulose) (HPC)
[5] = dose: 200.0 mg/kg/injection, schedule: Q01DX005 (ip), vehicle: Klucel (hydroxypropylcellulose) (HPC)
[6] = dose: 25.0 mg/kg/injection, schedule: Q01DX005 (ip), vehicle: saline with Tween-80
[7] = dose: 50.0 mg/kg/injection, schedule: Q01DX005 (ip), vehicle: saline with Tween-80
[8] = dose: 100.0 mg/kg/injection, schedule: Q01DX005 (ip), vehicle: saline with Tween-80
[9] = dose: 200.0 mg/kg/injection, schedule: Q01DX005 (ip), vehicle: saline with Tween-80
[10] = dose: 50.0 mg/kg/injection, schedule: Q01DX009 (ip), vehicle: Klucel (hydroxypropylcellulose) (HPC)
[11] = dose: 100.0 mg/kg/injection, schedule: Q01DX009 (ip), vehicle: Klucel (hydroxypropylcellulose) (HPC)
[12] = dose: 100.0 mg/kg/injection, schedule: Q01DX001 (ip), vehicle: saline with Tween-80
[13] = dose: 50.0 mg/kg/injection, schedule: Q01DX009 (ip), vehicle: saline with Tween-80
[14] = dose: 100.0 mg/kg/injection, schedule: Q04DX003 (ip), vehicle: saline with Tween-80
[15] = dose: 400.0 mg/kg/injection, schedule: Q04DX003 (ip), vehicle: saline with Tween-80
[16] = dose: 100.0 mg/kg/injection, schedule: Q01DX009 (ip), vehicle: saline with Tween-80
[17] = dose: 200.0 mg/kg/injection, schedule: Q01DX009 (ip), vehicle: saline with Tween-80
[18] = dose: 400.0 mg/kg/injection, schedule: Q01DX009 (ip), vehicle: saline with Tween-80
[19] = dose: 200.0 mg/kg/injection, schedule: Q01DX009 (ip), vehicle: Klucel (hydroxypropylcellulose) (HPC)

Measured: T/C

COc1cc(/C=C/c2ccc(O)c(OC)c2)cc(OC)c1
inactive: dose: 6.25 mg/kg/injection, schedule: Q01DX005 (ip), vehicle: Klucel (hydroxypropylcellulose) (HPC) 104 % of control | [1] 107 % of control | [2] 100 % of control | [3] 104 % of control and 108 % of control | [4] 95 % of control | [5] 88 % of control

O=C1c2cccc3cc([N+](=O)[O-])cc(c23)C(=O)N1CCCN(CCO)CCO
inactive: [6] 105 % of control | [7] 107 % of control | [8] 108 % of control and 121 % of control

CC1CCCN2C(=O)CN(CCc3ccccc3)CC(=O)N12 (configuration not stated)
inactive: [7] 99 % of control | [8] 100 % of control | [9] 100 % of control

COc1cc2c(cc1OC)[C@H]1[C@H](CO)c3ccc4c(c3CN1CC2)OCO4
inactive: [1] 100 % of control | [2] 96 % of control | [3] 94 % of control and 96 % of control

CCCCCCCCC(O)C#CC(O)CCCCCCCC (configuration not stated)
inactive: dose: 12.5 mg/kg/injection, schedule: Q01DX005 (ip), vehicle: saline with Tween-80 92 % of control | [6] 90 % of control | [7] 101 % of control and 91 % of control | [8] 100 % of control

Cc1cc(N2CCCCC2)cc(=O)o1
inactive: [10] 104 % of control | [11] 102 % of control

Nc1ccc(C2C(=[N+]([O-])[O-])C=C([N+](=O)[O-])c3[nH]o[n+](=O)c32)cc1 (configuration not stated)
inactive: dose: 50.0 mg/kg/injection, schedule: Q01DX001 (ip), vehicle: saline with Tween-80 100 % of control | [12] 100 % of control

[Br][Sn]([Br])([CH2]c1ccccc1)[c]1ccccc1
inactive: dose: 1.56 mg/kg/injection, schedule: Q04DX003 (ip), vehicle: saline 101 % of control and 102 % of control | dose: 3.12 mg/kg/injection, schedule: Q04DX003 (ip), vehicle: saline 99 % of control and 102 % of control | dose: 6.25 mg/kg/injection, schedule: Q04DX003 (ip), vehicle: saline with Tween-80 118 % of control | dose: 6.25 mg/kg/injection, schedule: Q04DX003 (ip), vehicle: saline 105 % of control and 106 % of control | dose: 12.5 mg/kg/injection, schedule: Q04DX003 (ip), vehicle: saline 99 % of control and 104 % of control

CCCC(NC(N)=O)C(CCC)NC(N)=O (configuration not stated)
inactive: [13] 102 % of control

C=C(N=NNc1ccccc1)c1ccccc1
inactive: [3] 97 % of control | [4] 101 % of control | [5] 93 % of control

O=C(O)C1Oc2cc3ccccc3cc2O1
inactive: dose: 50.0 mg/kg/injection, schedule: Q01DX009 (ip), vehicle: saline 90 % of control | dose: 100.0 mg/kg/injection, schedule: Q01DX009 (ip), vehicle: saline 90 % of control | dose: 200.0 mg/kg/injection, schedule: Q01DX009 (ip), vehicle: saline 97 % of control

NNC(=O)C(O)C(O)C(=O)NN (configuration not stated)
inactive: dose: 30.0 mg/kg/injection, schedule: Q01DX005 (ip), vehicle: saline 97 % of control | dose: 30.0 mg/kg/injection, schedule: Q01DX009 (ip), vehicle: saline 103 % of control | dose: 60.0 mg/kg/injection, schedule: Q01DX005 (ip), vehicle: saline 100 % of control | dose: 60.0 mg/kg/injection, schedule: Q01DX009 (ip), vehicle: saline 97 % of control | dose: 120.0 mg/kg/injection, schedule: Q01DX005 (ip), vehicle: saline 94 % of control | dose: 120.0 mg/kg/injection, schedule: Q01DX009 (ip), vehicle: saline 105 % of control

O=C(Cc1c[nH]c2ccccc12)Nc1nncs1
inactive: dose: 100.0 mg/kg/injection, schedule: Q04DX002 (ip), vehicle: saline with Tween-80 97 % of control | dose: 200.0 mg/kg/injection, schedule: Q04DX002 (ip), vehicle: saline with Tween-80 97 % of control | dose: 400.0 mg/kg/injection, schedule: Q04DX002 (ip), vehicle: saline with Tween-80 110 % of control

O=C(O)C(Cc1ccc(OC(=O)C(F)(F)F)cc1)NC(=O)C(F)(F)F (configuration not stated)
inactive: dose: 25.0 mg/kg/injection, schedule: Q04DX003 (ip), vehicle: saline with Tween-80 95 % of control | dose: 50.0 mg/kg/injection, schedule: Q04DX003 (ip), vehicle: saline with Tween-80 100 % of control | [14] 100 % of control and 101 % of control | [15] 93 % of control

N#CC(c1ccccc1)C(CC(=O)c1ccccc1)c1ccccc1 (configuration not stated)
inactive: [16] 86 % of control | [17] 95 % of control | [18] 95 % of control

C1=NCCNc2nc3ccccc3cc2C=NCCNc2nc3ccccc3cc21
inactive: dose: 50.0 mg/kg/injection, schedule: Q04DX002 (ip), vehicle: saline 100 % of control | dose: 100.0 mg/kg/injection, schedule: Q04DX002 (ip), vehicle: saline 99 % of control | dose: 200.0 mg/kg/injection, schedule: Q04DX002 (ip), vehicle: saline 99 % of control

NC(=O)NC1CCCC1
inactive: [14] 100 % of control | dose: 200.0 mg/kg/injection, schedule: Q04DX003 (ip), vehicle: saline with Tween-80 100 % of control | [15] 100 % of control

CSC1=NN(C)C2(CCCCC2)C(=O)N1
inactive: [10] 115 % of control | [11] 96 % of control | [19] 118 % of control

O=C(O)c1ccc(NC(=S)NC(=O)c2cccc(Br)c2)cc1
inactive: dose: 60.0 mg/kg/injection, schedule: Q01DX005 (ip), vehicle: saline with Tween-80 91 % of control | dose: 120.0 mg/kg/injection, schedule: Q01DX005 (ip), vehicle: saline with Tween-80 86 % of control

CS(=O)(=O)OCC(Cc1ccccc1)N1C(=O)c2ccccc2C1=O (configuration not stated)
inactive: [12] 101 % of control | dose: 200.0 mg/kg/injection, schedule: Q01DX001 (ip), vehicle: saline with Tween-80 100 % of control | dose: 400.0 mg/kg/injection, schedule: Q01DX001 (ip), vehicle: saline with Tween-80 89 % of control

Cc1c(O)c2c(c(O)c1Cc1cccc(C#N)c1)C(=O)c1ccccc1C2=O
inactive: dose: 25.0 mg/kg/injection, schedule: Q01DX009 (ip), vehicle: other 89 % of control

COC1/C=C/OC2(C)Oc3c(C)c(O)c4c(O)c(c5c(nc(-c6ccco6)n5-c5ccccc5)c4c3C2=O)NC(=O)/C(C)=C\C=C\C(C)C(O)C(C)C(O)C(C)C(OC(C)=O)C1C (configuration not stated)
inactive: dose: 25.0 mg/kg/injection, schedule: Q01DX009 (ip), vehicle: Klucel (hydroxypropylcellulose) (HPC) 89 % of control | [10] 95 % of control | [11] 95 % of control | [19] 93 % of control

S=C(Nc1ccccc1)NC1SNC(=Nc2ccccc2)N1c1ccccc1 (configuration not stated)
inactive: [7] 106 % of control | [8] 95 % of control | [9] 95 % of control

O=C(CBr)NCC1OC(n2cnc3c(=O)[nH]cnc32)C(O)C1O (configuration not stated)
inactive: [2] 99 % of control | [3] 96 % of control | [4] 99 % of control

O=[N+]([O-])c1cccc2ccc(N/N=C/c3ccccc3O)nc12
inactive: [10] 94 % of control | [13] 86 % of control | [11] 87 % of control and 91 % of control | [16] 93 % of control | [17] 88 % of control | [18] 89 % of control
